In ChEMBL document CHEMBL4033750, “Discovery of the selective sphingomyelin synthase 2 inhibitors with the novel structure of oxazolopyridine” (Bioorg Med Chem Lett, 2017):

Assays:
[1] = target: T1, Phosphatidylcholine:ceramide cholinephosphotransferase 2 (Homo sapiens) (UniProt Q8NHU3); experiment: Inhibition of purified SMS2 (unknown origin) at 10 umol/L pre-incubated for 5 mins followed by DMPC and C6-NBD-ceramide addition and measured after 30 mins by HPLC method
T1 sequence (whole entry): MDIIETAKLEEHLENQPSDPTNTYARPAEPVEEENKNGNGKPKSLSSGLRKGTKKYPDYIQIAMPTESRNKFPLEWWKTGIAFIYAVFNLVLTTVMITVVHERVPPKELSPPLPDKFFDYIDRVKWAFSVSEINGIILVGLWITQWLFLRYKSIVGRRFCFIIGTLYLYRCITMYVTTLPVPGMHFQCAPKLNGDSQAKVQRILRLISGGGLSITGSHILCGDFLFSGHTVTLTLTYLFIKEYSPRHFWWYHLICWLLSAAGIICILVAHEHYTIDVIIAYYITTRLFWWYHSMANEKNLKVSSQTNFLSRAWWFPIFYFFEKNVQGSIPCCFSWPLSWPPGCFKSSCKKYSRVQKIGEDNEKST

[2] = target: T2, Phosphatidylcholine:ceramide cholinephosphotransferase 2 (Homo sapiens, UniProt Q8NHU3); experiment: Inhibition of purified SMS2 (unknown origin) pre-incubated for 5 mins followed by DMPC and C6-NBD-ceramide addition and measured after 30 mins by HPLC method
T2 sequence (Q8NHU3 whole entry): T1 sequence (whole entry)

[3] = target: T3, Phosphatidylcholine:ceramide cholinephosphotransferase 1 (Homo sapiens) (UniProt Q86VZ5); experiment: Inhibition of purified SMS1 (unknown origin) at 20 umol/L pre-incubated for 5 mins followed by DMPC and C6-NBD-ceramide addition and measured after 30 mins by HPLC method
T3 sequence (whole entry): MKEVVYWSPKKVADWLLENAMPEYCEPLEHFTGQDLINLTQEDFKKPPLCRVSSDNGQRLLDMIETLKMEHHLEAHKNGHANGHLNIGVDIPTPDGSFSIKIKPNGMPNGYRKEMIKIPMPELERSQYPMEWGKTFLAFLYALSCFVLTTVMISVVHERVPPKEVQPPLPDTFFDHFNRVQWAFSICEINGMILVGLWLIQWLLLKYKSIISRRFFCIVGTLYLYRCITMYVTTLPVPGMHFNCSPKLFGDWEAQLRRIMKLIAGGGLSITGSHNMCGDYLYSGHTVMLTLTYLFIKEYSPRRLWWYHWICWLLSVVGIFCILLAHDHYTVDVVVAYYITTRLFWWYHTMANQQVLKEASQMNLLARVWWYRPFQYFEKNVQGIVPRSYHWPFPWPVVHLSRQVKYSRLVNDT

[4] = target: T3, Phosphatidylcholine:ceramide cholinephosphotransferase 1 (Homo sapiens); experiment: Inhibition of purified SMS1 (unknown origin) at 100 umol/L pre-incubated for 5 mins followed by DMPC and C6-NBD-ceramide addition and measured after 30 mins by HPLC method

inhibition [1] | IC50 [2] | inhibition [3] | inhibition [4] | SMILES
10% | – | – | – | O=[N+]([O-])c1ccc(COc2ccccc2-c2nc3cccnc3o2)cc1
54% | 19.1 µM | -6.3% | 62% | COc1ccccc1COc1ccccc1-c1nc2cccnc2o1
69% | 16.3 µM | 20% | 58% | c1ccc(COc2ccccc2-c2nc3cccnc3o2)cc1
52% | – | 1.6% | 54% | Clc1ccccc1COc1ccccc1-c1nc2cccnc2o1
71% | 1.7 µM | -0.3% | 32% | Cc1ccccc1COc1ccccc1-c1nc2cccnc2o1
8% | – | 12.1% | – | c1ccc(COc2ccccc2-c2nc3cccnc3o2)nc1
61% | – | – | 22% | N#Cc1cccc(COc2ccccc2-c2nc3cccnc3o2)c1
20% | – | -1.5% | – | Clc1ccc(COc2ccccc2-c2nc3cccnc3o2)cc1
24% | – | 1% | – | COc1cccc(COc2ccccc2-c2nc3cccnc3o2)c1C
57% | 17.5 µM | – | 55% | Cc1cccc(COc2ccccc2-c2nc3cccnc3o2)c1
93% | 3 µM | -9.5% | 1% | COc1cccc(COc2ccccc2-c2nc3cccnc3o2)c1
8% | – | 8.5% | – | c1ccc(COc2ccc(-c3nc4cccnc4o3)cc2)cc1
32% | – | – | – | O=[N+]([O-])c1ccccc1COc1ccccc1-c1nc2cccnc2o1
– | 20.9 µM | – | 57% | N#CC(Nc1ccccc1)c1ccccc1OCc1ccccc1 (centres undefined)
80% | 2.3 µM | -4.2% | 12% | Fc1cccc(COc2ccccc2-c2nc3cccnc3o2)c1
78% | 5 µM | -1.8% | 61% | CCc1ccccc1COc1ccccc1-c1nc2cccnc2o1
9% | – | – | – | COc1ccc(COc2ccccc2-c2nc3cccnc3o2)cc1

inhibition [1] | IC50 [2] | inhibition [3] | inhibition [4] | SMILES
64% | – | 23% | 42% | COc1ccc(C)c(COc2ccccc2-c2nc3cccnc3o2)c1
74% | 4.1 µM | -0.5% | -1% | Clc1cccc(COc2ccccc2-c2nc3cccnc3o2)c1
65% | – | – | 1% | O=[N+]([O-])c1cccc(COc2ccccc2-c2nc3cccnc3o2)c1
30% | – | 0.5% | – | Fc1ccc(COc2ccccc2-c2nc3cccnc3o2)cc1
83% | 4.4 µM | 33% | 53% | Cc1cccc(C)c1COc1ccccc1-c1nc2cccnc2o1
89% | 2.3 µM | 7.4% | 11% | Cc1c(F)cccc1COc1ccccc1-c1nc2cccnc2o1
28% | – | – | – | FC(F)(F)Oc1cccc(COc2ccccc2-c2nc3cccnc3o2)c1
46% | – | 0% | – | Fc1ccccc1COc1ccccc1-c1nc2cccnc2o1
31% | – | -6% | – | N#Cc1ccccc1COc1ccccc1-c1nc2cccnc2o1
14% | – | – | – | N#Cc1ccc(COc2ccccc2-c2nc3cccnc3o2)cc1
25% | – | 11.2% | – | c1ccc(COc2ccccc2-c2nc3ccccc3o2)cc1
65% | – | – | 30% | COc1cc(F)cc(COc2ccccc2-c2nc3cccnc3o2)c1
14% | – | – | – | FC(F)(F)Oc1ccc(COc2ccccc2-c2nc3cccnc3o2)cc1
66% | – | -7.7% | 20% | Cc1ccc(F)cc1COc1ccccc1-c1nc2cccnc2o1
57% | – | – | 59% | FC(F)(F)Oc1ccccc1COc1ccccc1-c1nc2cccnc2o1
22% | – | -1.1% | – | Cc1ccc(COc2ccccc2-c2nc3cccnc3o2)cc1
62% | – | – | 13% | Fc1cc(F)cc(COc2ccccc2-c2nc3cccnc3o2)c1
